Read-outs that look alike come from different tables or passages of the source.
Tests used:
Akt = conditions: SALT I 1 or 5 NM (so in the source); M-CSF 100 ng/mL for three minutes
Experimental: Akt1 also called protein kinase B is a serine/threonine kinase involved in a signaling pathway activated by the Bcr-Ab1 activity. Phosphorylated Akt1 phosphorylates cellular proteins and promotes cell proliferation and cell survival.
In vitro Akt kinase assays were performed as described in Kelley et al., supra. Briefly, monocytes were incubated overnight with M-CSF (20 ng/mL), serum-starved for 1.5 hours. […] Akt protein was immunoprecipitated from the cell lysate. The blot was probed with anti-phospho-threonine-Akt, stripped and re-probed for total Akt.

[1] = test system: M-CSF-stimulated human monocytes; conditions: for numbers of viable cells after the incubation period / numbers of viable cells after the incubation period, Mean: M-CSF 20 ng/mL + DMSO, 24 hours; for numbers of viable cells after the incubation period, Mean: Mean of 3 experiments
[2] = test system: Caspase-3 activity in M-CSF-stimulated human monocytes; conditions: M-CSF 20 ng/mL + DMSO, 18 hours
Description: Caspase-3 is a cysteine aspartate protease involved in the cascade leading to DNA fragmentation. Caspase-3 cleaves one subunit of a dimer called DNA fragmentation factor (DFF) at a tetrapeptide sequence DEVD, the other subunit then activates a nuclease that degrades DNA. […] Caspase-3 activity is defined as the amount of free amino trifluoromethylcoumarin (AFC) released from the caspase-3 selective fluorosubstrate DEVD-AFC measured by fluorometry. In the following table, caspase activity is given in pmol/min/mg.

CS(=O)(=O)O.Cc1ccc(NC(=O)c2ccc(CN3CCN(C)CC3)cc2)cc1Nc1nccc(-c2cccnc2)n1 [SALT I]
Akt phosphorylation (in words) (Akt): Decreases
numbers of viable cells after the incubation period ([1]; Experiment 1, SALT I 1 pM (so in the source)): 130
numbers of viable cells after the incubation period ([1]; Experiment 1, SALT I 5 pM (so in the source)): 156
numbers of viable cells after the incubation period ([1]; Experiment 1, SALT I 10 pM (so in the source)): 138
numbers of viable cells after the incubation period ([1]; Experiment 1, SALT I 50 pM (so in the source)): 46
numbers of viable cells after the incubation period ([1]; Experiment 1, SALT I 100 pM (so in the source)): 15
numbers of viable cells after the incubation period ([1]; Experiment 2, SALT I 1 pM (so in the source)): 79
numbers of viable cells after the incubation period ([1]; Experiment 2, SALT I 5 pM (so in the source)): 47
numbers of viable cells after the incubation period ([1]; Experiment 2, SALT I 10 pM (so in the source)): 46
numbers of viable cells after the incubation period ([1]; Experiment 2, SALT I 50 pM (so in the source)): 7
numbers of viable cells after the incubation period ([1]; Experiment 2, SALT I 100 pM (so in the source)): 11
numbers of viable cells after the incubation period ([1]; Experiment 3, SALT I 1 pM (so in the source)): 143
numbers of viable cells after the incubation period ([1]; Experiment 3, SALT I 5 pM (so in the source)): 75
numbers of viable cells after the incubation period ([1]; Experiment 3, SALT I 10 pM (so in the source)): 58
numbers of viable cells after the incubation period ([1]; Experiment 3, SALT I 50 pM (so in the source)): 36
numbers of viable cells after the incubation period ([1]; Experiment 3, SALT I 100 pM (so in the source)): 16
number of monocytes surviving at 18 hours (in words) ([1]; M-CSF stimulated monocytes, 18 hours): reduces
numbers of viable cells after the incubation period, Mean ([1]; SALT I 1 pM (so in the source)): 117
numbers of viable cells after the incubation period, Mean ([1]; SALT I 5 pM (so in the source)): 93
numbers of viable cells after the incubation period, Mean ([1]; SALT I 10 pM (so in the source)): 81
numbers of viable cells after the incubation period, Mean ([1]; SALT I 50 pM (so in the source)): 30
numbers of viable cells after the incubation period, Mean ([1]; SALT I 100 pM (so in the source)): 14
caspase activity ([2]; Donor 1, SALT I 0.1 pM (so in the source)): 156 pmol/min/mg
caspase activity ([2]; Donor 1, SALT I 1 pM (so in the source)): 356 pmol/min/mg
caspase activity ([2]; Donor 1, SALT I 5 pM (so in the source)): 573 pmol/min/mg
caspase activity ([2]; Donor 1, SALT I 10 pM (so in the source)): 629 pmol/min/mg
caspase activity ([2]; Donor 2, SALT I 0.1 pM (so in the source)): 220 pmol/min/mg
caspase activity ([2]; Donor 2, SALT I 1 pM (so in the source)): 299 pmol/min/mg
caspase activity ([2]; Donor 2, SALT I 5 pM (so in the source)): 329 pmol/min/mg
caspase activity ([2]; Donor 2, SALT I 10 pM (so in the source)): 407 pmol/min/mg
